These results are taken from patent US11492348B2, “Tri-substituted aryl and heteroaryl derivatives as modulators of PI3-kinase and autophagy pathways” (Neuropore Therapies, Inc., priority 2018, dated 2022).

Where a name gives a salt, the structure may show the parent alone.

The target of one assay is PI3Kα (Homo sapiens (Human), UniProt P42336). Description: Inhibition of PI3Kα (ADP-Glo kinase activity assay, ATP to ADP conversion). As to conditions: 25 μM PIP2:PS, 60 μM ATP, 30 min reaction, luminescence; for IC50: read-out: PI3Ka IC50. Type of assay: biochemical. The procedure, abridged: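 Recombinant active PI3Kα (1.1 nM) in HEPES pH 7.5 buffer with 6 mM MgCl2 and 8 mM DTT was preincubated with compound for 0 or 3 h. The reaction ran for 30 min with 25 µM PIP2:PS and 60 µM ATP, and ADP formation was read by ADP-Glo luminescence. IC50 came from a 12-point, 1:3 series fitted with a 4-parameter model, bottom fixed to reference inhibitor controls and top floating.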
For orientation: In ADP-Glo the light output rises with the ADP produced.

The target of a further assay is mTor kinase (Homo sapiens (Human), UniProt P42345). Nature of the assay: mTor assay (33P-ATP filter-binding kinase assay). Type of assay: biochemical. Particulars: 2 hours at room temperature. The method, then:
The substrate was prepared in base reaction buffer (20 mM Hepes (pH 7.5), 10 mM MgCl2, 1 mM EGTA, 0.02% Brij35, 0.02 mg/ml BSA, 0.1 mM Na3VO4, 2 mM DTT, 1% DMSO), and required cofactors were added to the substrate solution. The mTor kinase was delivered into the substrate solution, and the solution was gently mixed. Testing compounds were dissolved in 100% DMSO to specific concentration. The serial dilution was conducted by Integra Viaflo Assist in DMSO. The compounds were delivered into the kinase reaction mixture by Acoustic technology (Echo550; nanoliter range), and the reaction mixture was incubated for 20 min at room temperature. Then, 33P-ATP (Specific activity 10 μCi/μl) was delivered into the reaction mixture to initiate the reaction. The reaction mixture was incubated for 2 hours at room temperature. Radioactivity was detected by a filter-binding method. Kinase activity data were expressed as the percent remaining kinase activity in test samples compared to vehicle (dimethyl sulfoxide) reactions. IC50 values and curve fits were obtained using Prism (GraphPad Software).

The test system of assay [1] is (Ser-473) pAKT in B103 (Rat Neuroblastoma) cells. Description: pAKT protocol: loss of (Ser-473) pAKT by AlphaScreen in insulin-stimulated B103 cells. It is filed as cell-based. As to conditions: (Ser-473) pAKT/total AKT IC50, 2-hour pretreatment, 2.5 μg/mL insulin 20 minutes. Here is the method: Inhibition of the PI3K-AKT-mTOR pathway was measured by quantifying the loss of (Ser-473) pAKT using AlphaScreen (Perkin Elmer). B103 (Rat Neuroblastoma) cells were seeded in serum containing medium (High Glucose DMEM (-Phenol Red)+10% FBS+2× Glutamax+1 mM Sodium Pyruvate+10 mM HEPES+1× Non-Essential Amino Acids+1× Pen/Strep) on a 96-well tissue culture treated plate and grown for 20 hours. Cells were then serum starved in serum free medium (High Glucose DMEM (-Phenol Red)+1× Glutamax+1 mM Sodium Pyruvate+1× Pen/Strep) for 6 hours prior to a 2-hour pretreatment with inhibitors of the pathway, including reference inhibitor LY294002. These inhibitors were prepared at a 200× final concentration as a 6-point, 1:3 serial dilution in DMSO series, with DMSO as the 7th point. The inhibitors were then diluted in experimental medium (High Glucose DMEM (-Phenol Red)+1× Glutamax+1 mM Sodium Pyruvate+1× Pen/Strep+25 mM HEPES+0.1% BSA) and combined with the cells at 1× final concentration in 0.5% DMSO. […] Cells were promptly lysed using Perkin Elmer proprietary lysis buffer and the (Ser-473) pAKT and total AKT contained in the lysate was measured by AlphaScreen. In AlphaScreen, donor beads were coated with streptavidin to capture one of the antibodies, which is biotinylated. Acceptor beads were coated with Protein A to immobilize the other antibody. In the presence of target protein, the two antibodies bring the donor and acceptor beads close together, generating signal. The amount of light emission is directly proportional to the amount of target protein present in the sample. For each inhibitor tested: the ratio of measured (Ser-473) pAKT/totalAKT was plotted in GraphPad Prism as a 7-point, non-linear regression, 4-parameter curve with bottom constrained to reference control bottom and unconstrained top anchored to DMSO.
Background: Alpha assays give light when donor and acceptor beads are brought close together.

Sequence of PI3Kα (P42336 whole entry): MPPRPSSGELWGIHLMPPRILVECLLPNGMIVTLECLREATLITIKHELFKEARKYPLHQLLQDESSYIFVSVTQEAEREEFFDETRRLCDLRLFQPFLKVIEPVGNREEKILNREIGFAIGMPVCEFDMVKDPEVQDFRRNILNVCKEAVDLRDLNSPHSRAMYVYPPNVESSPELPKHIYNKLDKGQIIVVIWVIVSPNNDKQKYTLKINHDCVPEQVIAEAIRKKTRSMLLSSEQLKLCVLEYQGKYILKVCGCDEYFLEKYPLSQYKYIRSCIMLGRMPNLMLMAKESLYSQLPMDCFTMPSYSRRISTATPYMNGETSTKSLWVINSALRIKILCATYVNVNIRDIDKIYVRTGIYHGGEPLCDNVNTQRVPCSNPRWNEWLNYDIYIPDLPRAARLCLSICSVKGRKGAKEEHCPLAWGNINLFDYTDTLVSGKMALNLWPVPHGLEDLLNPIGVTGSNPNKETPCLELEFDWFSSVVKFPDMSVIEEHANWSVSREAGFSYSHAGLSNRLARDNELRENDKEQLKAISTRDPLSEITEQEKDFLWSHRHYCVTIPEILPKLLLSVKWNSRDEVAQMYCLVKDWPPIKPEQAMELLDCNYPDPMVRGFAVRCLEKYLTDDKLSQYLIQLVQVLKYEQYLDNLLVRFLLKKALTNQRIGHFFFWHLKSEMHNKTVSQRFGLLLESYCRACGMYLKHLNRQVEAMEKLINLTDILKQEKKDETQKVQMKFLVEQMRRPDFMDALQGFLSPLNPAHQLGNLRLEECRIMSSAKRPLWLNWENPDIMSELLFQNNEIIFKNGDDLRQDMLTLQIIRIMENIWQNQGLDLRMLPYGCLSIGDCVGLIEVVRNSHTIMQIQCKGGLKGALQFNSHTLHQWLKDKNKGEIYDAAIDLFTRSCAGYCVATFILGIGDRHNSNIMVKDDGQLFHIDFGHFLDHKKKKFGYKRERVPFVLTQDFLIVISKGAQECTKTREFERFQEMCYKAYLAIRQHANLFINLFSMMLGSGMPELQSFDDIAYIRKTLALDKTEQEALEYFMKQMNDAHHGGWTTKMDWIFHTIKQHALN
Sequence of PI3Kα (P27986 whole entry partner): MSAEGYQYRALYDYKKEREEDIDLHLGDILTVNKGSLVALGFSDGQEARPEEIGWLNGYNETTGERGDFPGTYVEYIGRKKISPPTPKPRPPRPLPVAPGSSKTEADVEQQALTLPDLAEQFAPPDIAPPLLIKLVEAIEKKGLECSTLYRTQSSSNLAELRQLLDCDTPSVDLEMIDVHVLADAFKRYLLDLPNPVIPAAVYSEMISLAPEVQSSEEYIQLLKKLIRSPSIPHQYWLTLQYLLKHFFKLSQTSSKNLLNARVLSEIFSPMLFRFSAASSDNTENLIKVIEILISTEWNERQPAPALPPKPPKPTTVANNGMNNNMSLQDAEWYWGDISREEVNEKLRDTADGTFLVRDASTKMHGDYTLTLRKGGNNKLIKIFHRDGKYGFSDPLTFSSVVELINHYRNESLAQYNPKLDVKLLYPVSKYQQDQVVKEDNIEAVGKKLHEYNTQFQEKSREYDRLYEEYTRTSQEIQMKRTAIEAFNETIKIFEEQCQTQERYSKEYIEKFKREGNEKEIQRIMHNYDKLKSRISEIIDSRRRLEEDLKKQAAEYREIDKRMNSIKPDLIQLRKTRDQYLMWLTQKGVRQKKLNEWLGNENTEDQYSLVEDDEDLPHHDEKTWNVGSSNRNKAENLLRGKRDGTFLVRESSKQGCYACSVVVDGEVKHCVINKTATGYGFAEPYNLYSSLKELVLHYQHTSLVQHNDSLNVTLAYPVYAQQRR

On to `Nc1ncc(-c2cc(N3CCOCC3)cc(S(=O)(=O)c3cccc4ccoc34)c2)cn1` [Compound 110, 5-(3-(benzofuran-7-ylsulfonyl)-5-morpholinophenyl)pyrimidin-2-amine], for which the “PI3Ka IC50” value at PI3Kα amounted to 0.40 µM. For the same compound, the values for the IC50 (at mTor kinase; in assay [1]) were 9.9 µM and 8.7 µM, respectively.
Consider `Nc1ncc(-c2cc(N3CCOCC3)cc(S(=O)(=O)C3CCC(F)(F)CC3)c2)cn1` [Compound 88, 5-(3-((4,4-difluorocyclohexyl)sulfonyl)-5-morpholinophenyl)pyrimidin-2-amine], for which the “PI3Ka IC50” value at PI3Kα is 0.53 µM. In addition, the figures for the IC50 (at mTor kinase; in assay [1]) were 2.46 µM and 6.54 µM, respectively.
For the compound `Nc1cc(C(F)(F)F)c(-c2cc(N3CCOCC3)cc(S(=O)(=O)Cc3ccccc3)c2)cn1` [Compound 32, 5-(3-(benzylsulfonyl)-5-morpholinophenyl)-4-(trifluoromethyl)pyridin-2-amine], the “PI3Ka IC50” value on PI3Kα amounted to 0.45 µM. Further, the IC50 (usually the midpoint of a concentration-inhibition curve) is > 33 µM at mTor kinase and 6.3 µM in assay [1].
Consider `Nc1ncc(-c2cc(N3CCOCC3)cc(S(=O)(=O)C3CCOCC3)c2)cn1` [Compound 62, 5-(3-morpholino-5-((tetrahydro-2H-pyran-4-yl)sulfonyl)phenyl)pyrimidin-2-amine], for which the “PI3Ka IC50” value at PI3Kα is 0.33 µM. In addition, the IC50 was 1.87 µM at mTor kinase and 6.47 µM in assay [1].
In the case of `CC(c1ccccc1)c1cc(-c2cnc(N)nc2)nc(N2CCOCC2)c1` (stereo not drawn) [Compound 125, 5-(6-morpholino-4-(1-phenylethyl)pyridin-2-yl)pyrimidin-2-amine], on PI3Kα, the “PI3Ka IC50” value was determined as 0.21 µM. Besides, the IC50 turned out to be 0.27 µM at mTor kinase and 0.81 µM in assay [1].
Consider `O=S(=O)(Cc1ccccc1)c1cc(-c2cnc(NCCO)nc2)cc(N2CCOCC2)c1` [Compound 35, 2-((5-(3-(benzylsulfonyl)-5-morpholinophenyl)pyrimidin-2-yl)amino)ethan-1-ol], for which the “PI3Ka IC50” value at PI3Kα was determined as 1.1 µM. For the same compound, the IC50 was found to be 12.2 µM at mTor kinase and 23.5 µM in assay [1].
For `N#Cc1ccc(S(=O)(=O)c2cc(-c3cnc(N)cc3C(F)(F)F)cc(N3CCOCC3)c2)cc1` [Compound 18, 4-((3-(6-amino-4-(trifluoromethyl)pyridin-3-yl)-5-morpholinophenyl)sulfonyl)benzonitrile], in that order: 3.9 µM, 100 µM and 100 µM.
Turning to `CS(=O)(=O)Nc1ccc(CS(=O)(=O)c2cc(-c3cnc(N)nc3)cc(N3CCOCC3)c2)cc1` [57 (as a TFA salt), N-(4-(((3-(2-aminopyrimidin-5-yl)-5-morpholinophenyl)sulfonyl)methyl)phenyl) methanesulfonamide], the figures for the IC50 (at PI3Kα; at mTor kinase; in assay [1]) were 0.48 µM, 3.44 µM and 19.8 µM, respectively.
As to `Nc1ncc(-c2cc(N3CCOCC3)cc(S(=O)(=O)C3COc4ccccc43)c2)cn1` (stereo not drawn) [Compound 119, 5-(3-((2,3-dihydrobenzofuran-3-yl)sulfonyl)-5-morpholinophenyl)pyrimidin-2-amine], the “PI3Ka IC50” value at PI3Kα amounted to 0.11 µM. Further, the IC50 was found to be 4.7 µM at mTor kinase and 4 µM in assay [1].
For `Nc1ncc(-c2cc(C(=O)c3ccccc3Cl)cc(N3CCOCC3)n2)cn1` [Compound 138, (2-(2-aminopyrimidin-5-yl)-6-morpholinopyridin-4-yl)(2-chlorophenyl)methanone], on PI3Kα, the “PI3Ka IC50” value worked out at 0.014 µM. In addition, the IC50 on mTor kinase was 1.1 µM; in assay [1], 0.19 µM.
In the case of `Nc1cc(Cl)c(-c2cc(N3CCOCC3)cc(S(=O)(=O)[C@@H]3CCOC3)c2)cn1` [Compound 107, (R)-4-chloro-5-(3-morpholino-5-((tetrahydrofuran-3-yl)sulfonyl)phenyl)pyridin-2-amine], on PI3Kα, the “PI3Ka IC50” value stood at 0.067 µM. Also, the IC50 at mTor kinase was 4.33 µM; in assay [1], 3.7 µM.
On to `O=S(=O)(c1ccccc1)c1cc(-c2cnc(NC3CC3)nc2)cc(N2CCOCC2)c1` [Compound 20, N-cyclopropyl-5-(3-morpholino-5-(phenylsulfonyl)phenyl)pyrimidin-2-amine], for which, at PI3Kα, the “PI3Ka IC50” value was 2.7 µM. Moreover, the 50% inhibitory concentration (IC50) was 10 µM at mTor kinase and 100 µM in assay [1].
For `Nc1ncc(-c2cc(N3CCOCC3)cc(S(=O)(=O)C(F)(F)c3ccccc3)c2)cn1` [Compound 87, 5-(3-((difluoro(phenyl)methyl)sulfonyl)-5-morpholinophenyl)pyrimidin-2-amine], in that order: 0.21 µM, 1.44 µM and 1 µM.
For the compound `O=S(=O)(c1ccccc1)c1cc(-c2cnc(NCCO)nc2)cc(N2CCOCC2)c1` [Compound 19, 2-((5-(3-morpholino-5-(phenylsulfonyl)phenyl)pyrimidin-2-yl)amino)ethan-1-ol], on PI3Kα, the “PI3Ka IC50” value worked out at 2.9 µM. For the same compound, the values for the IC50 (on mTor kinase; in assay [1]) were 16 µM and 37 µM, respectively.
Consider `Nc1ncc(-c2cc(OC3CCOC3)cc(N3CCOCC3)n2)cn1` (stereo not drawn) [Compound 130, 5-(6-morpholino-4-((tetrahydrofuran-3-yl)oxy)pyridin-2-yl)pyrimidin-2-amine], for which the “PI3Ka IC50” value on PI3Kα amounted to 0.023 µM. In addition, the IC50 was 1.75 µM on mTor kinase and 0.75 µM in assay [1].
With `Nc1ncc(-c2cc(N3CCOCC3)cc(S(=O)(=O)Cc3c[nH]c4ccccc34)c2)cn1` [48 (as a TFA salt), 5-(3-(((1H-indol-3-yl)methyl)sulfonyl)-5-morpholinophenyl)pyrimidin-2-amine], at PI3Kα, the “PI3Ka IC50” value amounted to 0.47 µM. The IC50 on mTor kinase is 6.39 µM; in assay [1] it was > 50 µM.
Regarding `CC(=O)Nc1ccc(S(=O)(=O)c2cc(-c3cnc(N)nc3)cc(N3CCOCC3)c2)cc1` [Compound 22, N-(4-((3-(2-aminopyrimidin-5-yl)-5-morpholinophenyl)sulfonyl)phenyl)acetamide], the “PI3Ka IC50” value on PI3Kα was determined as 2.8 µM. Moreover, the results for the IC50 (on mTor kinase; in assay [1]) were 8.69 µM and 39 µM, respectively.
On to `Nc1ncc(-c2cc(N3CCOCC3)cc(S(=O)(=O)Cc3c[nH]cn3)c2)cn1` [59 (as a TFA salt), 5-(3-(((1H-imidazol-4-yl)methyl)sulfonyl)-5-morpholinophenyl)pyrimidin-2-amine], for which the “PI3Ka IC50” value on PI3Kα was found to be 0.46 µM. Moreover, the values for the IC50 (on mTor kinase; in assay [1]) were 4.6 µM and 36.1 µM, respectively.
Regarding `Cc1ccc(S(=O)(=O)c2cc(-c3cnc(N)nc3)cc(N3CCOCC3)c2)cc1` [Compound 21, 5-(3-morpholino-5-tosylphenyl)pyrimidin-2-amine], the “PI3Ka IC50” value on PI3Kα came to 2.1 µM. The IC50 at mTor kinase came to 9.39 µM; in assay [1], 37 µM.
As to `Nc1ncc(-c2cc(C(=O)c3ccccc3)cc(N3CCOCC3)n2)cn1` [Compound 122, (2-(2-aminopyrimidin-5-yl)-6-morpholinopyridin-4-yl)(phenyl)methanone], the “PI3Ka IC50” value on PI3Kα stood at 0.037 µM. Further, the results for the IC50 (on mTor kinase; in assay [1]) were 0.51 µM and 0.48 µM, respectively.
`COc1ccc(CS(=O)(=O)c2cc(-c3cnc(N)nc3)cc(N3CCOCC3)c2)cc1` [Compound 28, 5-(3-((4-methoxybenzyl)sulfonyl)-5-morpholinophenyl)pyrimidin-2-amine]: the IC50 at PI3Kα is 0.37 µM; at mTor kinase, 7.9 µM; in assay [1], 13 µM.
